Laboratory results from ChEMBL document CHEMBL1138682, “Fluorescent pirenzepine derivatives as potential bitopic ligands of the human M1 muscarinic receptor” (J Med Chem, 2004).

Assays:
[1] = target: T1, Muscarinic acetylcholine receptor M1 (Homo sapiens, UniProt P11229); assay: Apparent dissociation constant for human muscarinic receptor M1 from FRET based binding assay
T1 sequence (P11229 whole entry): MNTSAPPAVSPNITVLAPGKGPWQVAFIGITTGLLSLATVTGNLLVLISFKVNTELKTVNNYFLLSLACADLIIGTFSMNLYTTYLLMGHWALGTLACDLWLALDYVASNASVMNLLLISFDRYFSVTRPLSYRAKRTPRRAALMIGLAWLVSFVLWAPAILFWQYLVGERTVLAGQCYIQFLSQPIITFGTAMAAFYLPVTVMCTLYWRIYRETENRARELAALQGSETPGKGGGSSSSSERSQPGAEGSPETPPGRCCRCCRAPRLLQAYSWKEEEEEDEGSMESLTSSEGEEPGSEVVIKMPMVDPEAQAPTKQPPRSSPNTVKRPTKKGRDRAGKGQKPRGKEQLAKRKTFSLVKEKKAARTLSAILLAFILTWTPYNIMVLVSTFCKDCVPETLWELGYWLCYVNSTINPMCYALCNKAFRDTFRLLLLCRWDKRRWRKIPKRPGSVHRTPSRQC

[2] = target: T1, Muscarinic acetylcholine receptor M1; assay: Inhibition of [3H]QNB binding to human muscarinic receptor M1
[3] = target: T2, Muscarinic acetylcholine receptor M1 (Homo sapiens) (UniProt P11229); assay: Dissociation rate constant for human muscarinic receptor at 200 nM with 100 uM brucine
T2 sequence (whole entry): T1 sequence (P11229 whole entry)

[4] = target: T2, Muscarinic acetylcholine receptor M1 (Homo sapiens); assay: Dissociation rate constant for human muscarinic receptor at 200 nM with 500 uM brucine
[5] = target: T2, Muscarinic acetylcholine receptor M1 (Homo sapiens)
[6] = target: T2, Muscarinic acetylcholine receptor M1 (Homo sapiens); assay: Dissociation rate constant for human muscarinic receptor at 500 nM with 100 uM brucine
[7] = target: T2, Muscarinic acetylcholine receptor M1 (Homo sapiens); assay: Dissociation rate constant for human muscarinic receptor at 500 nM with 500 uM brucine
[8] = target: T2, Muscarinic acetylcholine receptor M1 (Homo sapiens); settings: 300 nM
[9] = target: T2, Muscarinic acetylcholine receptor M1 (Homo sapiens); settings: 300 nM; remark: listed apart in the source
[10] = target: T2, Muscarinic acetylcholine receptor M1 (Homo sapiens); settings: 100 nM
[11] = target: T2, Muscarinic acetylcholine receptor M1 (Homo sapiens); settings: 100 nM; remark: listed apart in the source

Kd [1] [nM] | Ki [2] [nM] | Dissociation rate constant [3] | Dissociation rate constant [4] | E [5] | Dissociation rate constant [6] | Dissociation rate constant [7] | Dissociation rate constant [8] | Dissociation rate constant [9] | Dissociation rate constant [10] | Dissociation rate constant [11] | Structure (SMILES)
12.7 | 55.1 | 0.00144 1/S | 0.00146 1/S | 0.51 | – | – | – | – | – | – | O=C(CCCCCNC(=O)CCC1=[N+]2C(=Cc3ccc(-c4cccs4)n3[B-]2(F)F)C=C1)NCCCCCC(=O)NCCCCN1CCN(CC(=O)N2c3ccccc3C(=O)Nc3cccnc32)CC1
18.7 | 53.5 | – | – | 0.68 | 0.00062 1/S | 0.00051 1/S | – | – | – | – | CCN(CC)c1ccc2c(-c3ccc(S(=O)(=O)NCCCCCC(=O)NCCOCCOCCN4CCN(CC(=O)N5c6ccccc6C(=O)Nc6cccnc65)CC4)cc3S(=O)(=O)[O-])c3ccc(=[N+](CC)CC)cc-3oc2c1
– | > 1000 | – | – | – | – | – | – | – | – | – | O=C(CCC1=[N+]2C(=Cc3ccc(-c4cccs4)n3[B-]2(F)F)C=C1)NCCN1CCN(CC(=O)N2c3ccccc3C(=O)Nc3cccnc32)CC1
35.7 | 135 | – | – | 0.6 | – | – | 0.00039 1/S | 0.000353 1/S | – | – | CCN1/C(=C/C=C/C2N(CCCCCC(=O)NCCOCCOCCN3CCN(CC(=O)N4c5ccccc5C(=O)Nc5cccnc54)CC3)c3ccc(S(=O)(=O)O)cc3C2(C)C)C(C)(C)c2cc(S(=O)(=O)O)ccc21 (configuration not stated)
12.9 | 8.8 | – | – | 0.63 | – | – | – | – | 7.2e-05 1/S | 0.0002 1/S | O=C(CCC1=[N+]2C(=Cc3ccc(-c4cccs4)n3[B-]2(F)F)C=C1)NCCCCCCN1CCN(CC(=O)N2c3ccccc3C(=O)Nc3cccnc32)CC1
4.1 | 8.9 | – | – | 0.53 | – | – | – | – | 0.00025 1/S | 0.00023 1/S | O=C(CCC1=[N+]2C(=Cc3ccc(-c4cccs4)n3[B-]2(F)F)C=C1)NCCOCCOCCOCCOCCOCCOCCN1CCN(CC(=O)N2c3ccccc3C(=O)Nc3cccnc32)CC1
– | > 1000 | – | – | – | – | – | – | – | – | – | CNC(=O)CCC1=[N+]2C(=Cc3ccc(-c4cccs4)n3[B-]2(F)F)C=C1
21.9 | 45.4 | 0.00025 1/S | 0.00013 1/S | 0.6 | – | – | – | – | – | – | O=C(CCC1=[N+]2C(=Cc3ccc(-c4cccs4)n3[B-]2(F)F)C=C1)NCCOCCOCCN1CCN(CC(=O)N2c3ccccc3C(=O)Nc3cccnc32)CC1
